Each molecule was assayed on S. epidermidis (Staphilococcus epidermidis) (assay: MIC by conventional measurement method, S. epidermidis). Conditions: 106 cfu/ml, necessary time 18 hours.
Type: cell-based
Excerpt: The drug susceptibility measurement results are obtained by employing S. epidermidis (Staphilococcus epidermidis), […] (Genus Enterococcus) as bacteria, and by determining an amount of bacteria to be 10^6 cfu/ml. And, PCG (Penicillin G), IPM (Imipenem), MINO (Minocycline), EM (Erythromycin), OFLX (Ofloxacin), ST (Sulfamethoxazole Trimethoprim), […]) are employed as drug.

| SMILES | (a) MIC values (minimum inhibitory interfering concentration) obtained by a conventional measurement method |
| --- | --- |
| CC[C@H]1OC(=O)[C@H](C)[C@@H](O[C@H]2C[C@@](C)(OC)[C@@H](O)[C@H](C)O2)[C@H](C)[C@@H](O[C@@H]2O[C@H](C)C[C@H](N(C)C)[C@H]2O)[C@](C)(O)C[C@@H](C)C(=O)[C@H](C)[C@@H](O)[C@]1(C)O [EM, Erythromycin] | ≦0.12 g g/ml |
| C[C@@H](O)[C@H]1C(=O)N2C(C(=O)O)=C(SCCN=CN)C[C@H]12 [IPM, Imipenem] | ≦1 g g/ml |
| CN(C)c1ccc(O)c2c1C[C@H]1C[C@H]3[C@H](N(C)C)C(O)=C(C(N)=O)C(=O)[C@@]3(O)C(O)=C1C2=O [MINO, Minocycline] | ≦0.12 g g/ml |
| CC1COc2c(N3CCN(C)CC3)c(F)cc3c(=O)c(C(=O)O)cn1c23 (centres unmarked) [OFLX, Ofloxacin] | ≦1 g g/ml |
| CN[C@H](CC(C)C)C(=O)N[C@H]1C(=O)N[C@@H](CC(N)=O)C(=O)N[C@H]2C(=O)N[C@H]3C(=O)N[C@H](C(=O)N[C@H](C(=O)O)c4cc(O)cc(O)c4-c4cc3ccc4O)[C@H](O)c3ccc(c(Cl)c3)Oc3cc2cc(c3O[C@@H]2O[C@H](CO)[C@@H](O)[C@H](O)[C@H]2O[C@H]2C[C@](C)(N)[C@H](O)[C@H](C)O2)Oc2ccc(cc2Cl)[C@H]1O [VCM, Vancomycin] | ≦1 g g/ml |

— patent US7081353B2, “Drug susceptibility measurement method and apparatus thereof” (Jikei University School of Medicine, priority 2000, dated 2006)
